The text below walks through data of US20180326022A1, “COMPOSITIONS AND METHODS FOR IMPROVING HEART FUNCTION AND TREATING HEART FAILURE” (The Trustees of the University of Pennsylvania, priority 2017, published 2018).

Assay [1] deals with primary adult rat cardiomyocytes. Nature of the assay: Cell contractility (sarcomere shortening, 1 Hz pacing). Conditions: for contraction amplitudes and velocities: primary adult rat cardiomyocytes, vinblastine 20 μM 2 hr, nocodazole 1 μM 30 min, costunolide 10 μM 2 hr. In kind it is cell-based. How it is done:
(§1) Viral constructs were permitted to express for 24-72 hours with Moi=100-200. Parthenolide (Fisher Scientific NC9013142) treatment was carried out at room temperature for 2 hours at 10 μM. All experiments were performed within 48 hours of isolation, except those involving shTTL, which were allowed 72 hours to improve knockdown efficiency.
Experiments were performed in custom-fabricated cell chambers (Ionoptix) mounted on an LSM Zeiss 780 inverted confocal microscope using a 40× oil 1.4 NA objective and transmitted light camera (IonOptix MyoCam-S). For contractility assays, cells were maintained in NT solution and electrical field stimulation was provided at 1 Hz with a myopacer (IonOptix MYP100) through platinum electrodes lowered into the bath. Sarcomere length was measured optically by Fourier transform analysis (IonWizard, IonOptix). After 15 s of 1 Hz pacing to achieve steady state, five traces were recorded and analyzed.

The test system of assay [2] is human myocytes. Nature of the assay: Calcium measurements in human myocytes. The format is cell-based. The protocol:
(§2) Viable myocytes were concentrated by gravity (5-7 min) and supernatant was aspirated to remove dead cells. Myocytes were resuspended in NT solution containing 1 mM Ca^2+ and concentrated by gravity (5-7 min) again. Cardiomyocytes used acutely were maintained in NT solution for up to 6 hours. Myocytes were treated with 10 μM parthenolide (Fisher Scientific NC9013142 or Sigma P0667) or 10 μM colchicine (Sigma) at room temperature in NT solution for 2 hours. Experiments were performed within 6 hours of isolation, except for those involving viral transduction in cultured cells.
Calcium measurements were carried out as described in Example 1 with the following modifications. Myocytes were loaded with 1 μM Fluo-3-acetoxymethyl ester (Invitrogen) and 15% Pluronic F127 (a poloxamer made by BASF, Florham Park, N.J., USA) for 15 minutes. Cells were scanned using a 488-nm argon ion laser in confocal line-scan mode at 0.909 ms/line. Cells were electrically paced at 0.5 Hz at room temperature for 30 s to achieve steady state; five steady-state transients of each myocyte were averaged, pooled in groups and analyzed for calcium transient properties. The measured fluorescence (F) throughout the transient was normalized to the resting fluorescence prior to stimulation (F0) to normalize for heterogeneity in dye loading.

In assay [3] the test system is human myocytes. Nature of the assay: Cell contractility of human myocytes (0.5 Hz). In kind it is cell-based. The protocol:
as §2
MatTek glass bottom dish was coated 5 μl of 0.5 mg/ml laminin and air dried for 10 min. Culture medium was F-10 (1×) Nutrient Mixture (Ham) [+] L-Glutamine (Life Technologies, 11550-043) supplemented with insulin-transferrin selenium-X (Gibco, 51500-056), 20 mM HEPES, 1 μg/μl primocin (Invivogen, ant-pm-1), 0.4 mM extra CaCl2, 5% FBS, 25 μM cytochalasin D (Cayman, 11330). Viable myocytes were concentrated and a proper amount of medium was added in culture so that neighboring cells were not in direct contact. Viral constructs were permitted to express for 48 hours with Moi=100-200. Adenoviral TTL-IRES-dsRed and EMTB-3x GFP were transduced in human myocytes as previously performed in rat myocytes. Myocytes were replenished with fresh warm medium without cytochalasin D before calcium and contractility measurements.
Experiments were performed as described in Example 1 with some modification. Contractility is measured in custom-fabricated cell chambers (Ionoptix) mounted on an LSM Zeiss 880 inverted confocal microscope using a 40× oil 1.4 NA objective and transmitted light camera (IonOptix MyoCam-S). Myoyctes were maintained in NT solution (for freshly isolated myocytes) or culture medium (without cytochalasin D, for cultured myocytes) at room temperature and electrical field stimulation was provided at 0.5 Hz with a myopacer (IonOptix MYP100) through platinum electrodes lowered into the bath. Sarcomere length was measured optically by Fourier transform analysis (IonWizard, IonOptix). After 10-30 s of 0.5 Hz pacing to achieve steady state, five traces were recorded and analyzed. If not specified, contractility data was obtained at room temperature.
To test whether the contractile improvement over MT destabilization remains under more physiological conditions, both 0.5 Hz and 1 Hz contractions at 37 C were recorded and analyzed in a small subset of isolated human myocytes (1 NF and 1 failing heart, FIG. 29C).

Assay [4] relates to human myocytes. Nature of the assay: Nanoindentation stiffness measurements. In kind it is cell-based. To be noted: failing human myocytes; 10 μM, 2 hours. How it is done:
as §2
MatTek glass bottom dish was coated 5 μl of 0.5 mg/ml laminin and air dried for 10 min. Culture medium was F-10 (1×) Nutrient Mixture (Ham) [+] L-Glutamine (Life Technologies, 11550-043) supplemented with insulin-transferrin selenium-X (Gibco, 51500-056), 20 mM HEPES, 1 μg/μl primocin (Invivogen, ant-pm-1), 0.4 mM extra CaCl2, 5% FBS, 25 μM cytochalasin D (Cayman, 11330). Viable myocytes were concentrated and a proper amount of medium was added in culture so that neighboring cells were not in direct contact. […]
Mechanical properties at the microscopic scale were measured using nanoindentation (Piuma, Optics11, The Netherlands). […] The Young's moduli were calculated automatically by the software, by fitting the force vs. indentation curve to the Hertz equation. […]

The test system of assay [5] is cardiac and skeletal muscle. Conditions: 10 μM; refs (13), (8); cited from earlier work.
Another assay has as its system rat cardiomyocytes. Nature of the assay: Calcium measurements (Fluo-3 transients). The format is cell-based. Conditions: rat ventricular myocytes; 2 hrs of 10 μM EpoY. The protocol:
Myocytes were loaded with Fluo-3 by 20 min incubation with 1 μM Fluo-3-acetoxymethyl ester (Invitrogen) and 0.01% Pluronic F127 (a poloxamer made by BASF, Florham Park N.J., USA), and allowed an additional 10 min for de-esterification. Cells were scanned using a 488 nm argon ion laser in confocal line-scan mode at 1.92 ms/line. Cells were electrically paced at 1 Hz for 20 s to achieve steady state; the final 5 traces of the pacing protocol were pooled and analyzed for calcium transient properties. The measured fluorescence (F) throughout the transient was normalized to the resting fluorescence prior to stimulation (F0) to normalize for heterogeneity in dye loading.

For the next assay, the system named is detyrosinated tubulin. Nature of the assay: Western blotting of cardiomyocyte lysates (TTL, α-, detyr-, tyr-tubulin). In kind it is cell-based. To be noted: rat cardiomyocytes; PTL treatment; shTTL; short term EpoY. The protocol:
as §1
For analysis of proteins expression levels quantitative Western blots were performed using infrared fluorescence imaging on an Odyssey Imager (LI-COR). Cell homogenates were prepared in ice-cold IGEPAL lysis buffer. After 1 freezing cycle lysates were spun at 18,000×g for 5 min. Aliquots of supernatants were mixed with 4× sample buffer (LI-COR, 928-40004) containing 10% BME, boiled for 6 min., and resolved on sodium dodecyl sulfate (SDS)-polyacrylamide gel electrophoresis Tris-glycine gels (Bio-Rad). Proteins were transferred to a membrane on Mini Trans-Blot Cell (Bio-Rad), blocked 1 h in Odyssey Blocking Buffer (TBS) (LI-COR, 927-50000), and probed with the corresponding primary antibody (see list below) for 2 h at room temperature. Membranes were then rinsed with TBST 4 times for 5 min, and incubated with secondary antibodies (below) for 1.5 h at room temperature. Membranes were rinsed again with TBST and then imaged on Odyssey Imager. Image analysis was performed using Image Studio Lite software (LI-COR). Fluorescent band intensity was always normalized to GAPDH loading control. Analysis of human tissue samples for levels of detyrosinated tubulin was performed blinded to the experimental groups.
A general note: A western blot detects proteins with antibodies after separation by electrophoresis.

Turning to `C=C1C(=O)O[C@@H]2/C=C(\C)CC/C=C(\C)CC[C@@H]12` [costunolide, (3aS,6E,10E,11aR)-6,10-dimethyl-3-methylidene-3a,4,5,8,9,11a-hexahydrocyclodeca[b]furan-2-one], the “contraction amplitudes and velocities” value in assay [1] is listed as “effective to increase”.
On to `COc1cc2c(c(OC)c1OC)-c1ccc(OC)c(=O)cc1[C@@H](NC(C)=O)CC2` [colchicine, (S)—N-(5,6,7,9-tetrahydro-1,2,3,10-tetramethoxy-9 oxobenzol[a]heptalen-7-yl) acetamide], for which, in the assay with human myocytes [2] (any group (NF and failing human myocytes)), the “Ca2+ cycling” value is “no significant effect”. The “impaired [Ca2+]i cycling” value in the assay with human myocytes [2] (failing human myocytes) is “neither colch nor PTL treatment improved”. Besides, the “shortening amplitude and contractile velocities” value in the assay on human myocytes [3] (NF human myocytes, 10 μM, 2 hours) is listed as “modest (yet significant) increases”. For the same compound, the “restoration of lost function (contractile velocities vs NF benchmark)” value in the assay with human myocytes [3] (failing human myocytes) is recorded as roughly 50%. The “shortening amplitude and velocity, speed of relaxation” value in the assay on human myocytes [3] (failing human myocytes, 10 μM, 2 hours) is recorded as “robustly improved”. Further, the “viscoelasticity (Emax and EΔ)” value in the assay with human myocytes [4] was “robustly reduced viscoelasticity”. Moreover, the effect on microtubules entry in assay [5] is “broadly depolymerizes MTs”.
`COC(=O)Nc1nc2ccc(C(=O)c3cccs3)cc2[nH]1` [nocodazole]: the “contraction amplitudes and velocities” value in assay [1] was “effective to increase”.
In the case of `CC[C@]1(O)C[C@@H]2CN(CCc3c([nH]c4ccccc34)[C@@](C(=O)OC)(c3cc4c(cc3OC)N(C)[C@H]3[C@@](O)(C(=O)OC)[C@H](OC(C)=O)[C@]5(CC)C=CCN6CC[C@]43[C@@H]65)C2)C1` [vinblastine], the “contraction amplitudes and velocities” value in assay [1] is recorded as “effective to increase”.
As to `CCOC(=O)C1O[C@@H]1C(=O)N[C@@H](Cc1ccc(O)cc1)C(=O)O` (some centres unmarked) [EpoY], the “electrically evoked [Ca2+]i transients” value in the assay with rat cardiomyocytes is “not changed”. Moreover, the “contractility (amplitude of contraction, velocity of contraction and relaxation)” value in assay [1] (rat ventricular myocytes, 2 hrs of 10 μM EpoY) was “enhanced”. In the assay with detyrosinated tubulin, the “alpha / total tubulin levels (western blot)” value is reported as “without changing” and the “detyrosinated tubulin (western blot)” value is recorded as “specifically reduces detyrosination”.
